Reference: patent US10681909B2, “Herbicidal triazoles” (FMC Corporation, priority 2014, dated 2020)

Columns and labels:
pigweed = experiment: Test A postemergence; assay type: in vivo, Amaranthus retroflexus; details: Amaranthus retroflexus, post-emergence, 240 h, 0 to 100 scale (0 no effect, 100 complete control), approx. 10 d, read-out: Plant response rating, Pigweed; for pest or weed control at 125 g/ha: 125 g ai/ha; for pest or weed control at 500 g/ha: 500 g ai/ha
Method in brief: (§1)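 Test chemicals in a non-phytotoxic solvent with surfactant were applied as a directed soil spray preemergence to seeds sown in loam/sand. Postemergence sprays went to plants 2–10 cm tall at the one- to two-leaf stage. A dash means no result.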

corn = experiment: Test A postemergence; assay type: in vivo, Zea mays; details: Zea mays, post-emergence, 240 h, 0 to 100 scale (0 no effect, 100 complete control), approx. 10 d; for Corn plant response rating (crop injury, 0 = no effect, 100 = complete kill) at 125 g/ha: 125 g ai/ha; for Corn plant response rating (crop injury, 0 = no effect, 100 = complete kill) at 500 g/ha: 500 g ai/ha
Method in brief: as §1

barnyardgrass [1] = experiment: Test B flooded paddy test; assay type: in vivo, Echinochloa crus-galli; details: Echinochloa crus-galli, 360 h, 125 g ai/ha, applied to paddy water at 2-leaf stage, visual rating after 13 to 15 d, scale 0 (no effect) to 100 (complete control), read-out: Plant response rating, Barnyardgrass, Flood
Method in brief: (§2)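 Pots were flooded to 3 cm above the soil at treatment, and compounds were applied directly into the paddy water. That depth was held throughout. After 13 to 15 d in a greenhouse, plants were rated visually against untreated controls.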

foxtail, giant = experiment: Test A postemergence; assay type: in vivo, Setaria faberii; details: Setaria faberi, post-emergence, 240 h, 0 to 100 scale (0 no effect, 100 complete control), approx. 10 d, read-out: Plant response rating, Foxtail, Giant; for pest or weed control at 125 g/ha: 125 g ai/ha; for pest or weed control at 500 g/ha: 500 g ai/ha
Method in brief: as §1

wheat = experiment: Test A postemergence; assay type: in vivo, Triticum aestivum; details: Triticum aestivum, post-emergence, 240 h, 0 to 100 scale (0 no effect, 100 complete control), approx. 10 d, read-out: Plant response rating, Wheat; for plant injury at 125 g/ha: 125 g ai/ha; for plant injury at 500 g/ha: 500 g ai/ha
Method in brief: as §1

ducksalad = experiment: Test B flooded paddy test; assay type: in vivo, Heteranthera limosa; details: Heteranthera limosa, 360 h, 125 g ai/ha, applied to paddy water at 2-leaf stage, visual rating after 13 to 15 d, scale 0 (no effect) to 100 (complete control), read-out: Plant response rating, Ducksalad, Flood
Method in brief: as §2

sedge, umbrella = experiment: Test B flooded paddy test; assay type: in vivo, Cyperus difformis; details: Cyperus difformis, 360 h, 125 g ai/ha, applied to paddy water at 2-leaf stage, visual rating after 13 to 15 d, scale 0 (no effect) to 100 (complete control), read-out: Plant response rating, Sedge, Umbrella, Flood
Method in brief: as §2

barnyardgrass [2] = experiment: Test A preemergence; assay type: in vivo, Echinochloa crus-galli; details: Echinochloa crus-galli, pre-emergence, 240 h, 0 to 100 scale (0 no effect, 100 complete control), read-out: Plant response rating, Barnyardgrass; for pest or weed control at 125 g/ha: 125 g ai/ha; for pest or weed control at 500 g/ha: 500 g ai/ha, approx. 10 d
Method in brief: as §1

barnyardgrass [3] = experiment: Test A postemergence; assay type: in vivo, Echinochloa crus-galli; details: Echinochloa crus-galli, post-emergence, 240 h, 0 to 100 scale (0 no effect, 100 complete control), approx. 10 d, read-out: Plant response rating, Barnyardgrass; for pest or weed control at 125 g/ha: 125 g ai/ha; for pest or weed control at 500 g/ha: 500 g ai/ha
Method in brief: as §1

Structure (SMILES) | pest or weed control at 125 g/ha (pigweed) | pest or weed control at 500 g/ha (pigweed) | Corn plant response rating (crop injury, 0 = no effect, 100 = complete kill) at 125 g/ha (corn) | Corn plant response rating (crop injury, 0 = no effect, 100 = complete kill) at 500 g/ha (corn) | pest or weed control at 125 g/ha (barnyardgrass [1]) | pest or weed control at 125 g/ha (foxtail, giant) | pest or weed control at 500 g/ha (foxtail, giant) | plant injury at 125 g/ha (wheat) | plant injury at 500 g/ha (wheat) | pest or weed control at 125 g/ha (ducksalad) | pest or weed control at 125 g/ha (sedge, umbrella) | pest or weed control at 125 g/ha (barnyardgrass [2]) | pest or weed control at 500 g/ha (barnyardgrass [2]) | pest or weed control at 125 g/ha (barnyardgrass [3]) | pest or weed control at 500 g/ha (barnyardgrass [3])
Cn1nc(-c2ccc(F)cc2)nc1C(O)c1ccnc(C(F)(F)F)c1 (stereo not drawn) [Compound 14, α-[3-(4-fluorophenyl)-1-methyl-1H-1,2,4-triazol-5-yl]-2-(trifluoromethyl)-4-pyridinemethanol] | 60% | 90% | 10% | 20% | 0% | 20% | 30% | 10% | 30% | 0% | 0% | 0% | 10% | 10% | 20%
CCn1nc(-c2ccc(F)cc2)nc1C(O)c1ccnc(C(F)(F)F)c1 (stereo not drawn) [Compound 15, α-[1-Ethyl-3-(4-fluorophenyl)-1H-1,2,4-triazol-5-yl]-2-(trifluoromethyl)-4-pyridinemethanol] | 10% | 70% | 0% | 10% | 0% | 0% | 10% | 0% | 0% | 0% | 0% | 0% | 0% | 0% | 10%
CCCn1nc(-c2ccc(F)cc2)nc1Cc1ccnc(C(F)(F)F)c1 [Compound 17, 4-[[3-(4-fluorophenyl)-1-propyl-1H-1,2,4-triazol-5-yl]methyl]-2-(trifluoromethyl)pyridine] | 100% | 100% | 50% | 70% | 10% | 90% | 90% | 60% | 80% | 70% | 80% | 50% | 100% | 70% | 90%
CCn1nc(-c2ccc(F)cc2)nc1C(=O)c1ccnc(C(F)(F)F)c1 [Compound 19, [1-ethyl-3-(4-fluorophenyl)-1H-1,2,4-triazol-5-yl][2-(trifluoromethyl)-4-pyridinyl]methanone] | 0% | 30% | 0% | 20% | 0% | 0% | 0% | 0% | 0% | 0% | 0% | 0% | 0% | 0% | 0%
CS(=O)(=O)c1nc(-c2ccc(F)cc2)nn1Cc1ccnc(C(F)(F)F)c1 [Compound 29, 4-[[3-(4-fluorophenyl)-5-(methylsulfonyl)-1H-1,2,4-triazole-1-yl]methyl]-2-(trifluoromethyl)pyridine] | 0% | 0% | 0% | 0% | 0% | 0% | 0% | 0% | 0% | 0% | 0% | 0% | 0% | 0% | 0%
